In PubChem BioAssay (NCI):
Values joined by “and” are separate entries in the source; they are usually repeats but may differ in a detail not shown here. Equal values may be shown once.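 Dose response: 5 concentrations. Exposure: 48 h. Format: 96-well plates. Endpoint: linear interpolation; highest concentration if not reached. GI50 = concentration required for 50% inhibition of growth. TGI is the concentration that stops growth completely.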

Legend:
Test in all cases: NCI tumour cell line growth inhibition, 48 h
DMS 114 small cell lung = system: DMS 114 small cell lung
DMS 273 small cell lung = system: DMS 273 small cell lung
XF 498 CNS = system: XF 498 CNS
SNB-78 CNS = system: SNB-78 CNS
M19-MEL melanoma = system: M19-MEL melanoma
P388/ADR leukemia = system: P388/ADR leukemia
HOP-18 NSCLC = system: HOP-18 NSCLC
P388 leukemia = system: P388 leukemia
DLD-1 colon = system: DLD-1 colon
SN12K1 renal = system: SN12K1 renal
RXF-631 renal = system: RXF-631 renal

Compound	TGI (DMS 114 small cell lung)	TGI (DMS 273 small cell lung) [µM]	TGI (XF 498 CNS)	TGI (SNB-78 CNS) [µM]	TGI (M19-MEL melanoma)	TGI (P388/ADR leukemia) [µM]	GI50 (HOP-18 NSCLC)	TGI (HOP-18 NSCLC) [µM]	GI50 (DMS 273 small cell lung)	TGI (P388 leukemia)	TGI (DLD-1 colon) [µM]	TGI (SN12K1 renal)	TGI (RXF-631 renal) [µM]
O=C1NC2(C=Cc3c(ccc4ccccc34)O2)Oc2ccccc21 (centres undefined)	51 µM	76.1	> 100 µM	94.1	> 100 µM								
CCCCCCCCCCSCC(CO)NC(=O)/C=C/c1c(C)[nH]c(=O)[nH]c1=O (centres undefined)	5.93 µM and 4.33 µM	> 50	2.19 µM and 3.61 µM	> 31.6	14.8 µM and > 39.5 µM	> 50	2.91 µM and > 26.8 µM	> 50	1.97 µM and 4.58 µM	7.15 µM and 6.31 µM	> 50	> 35.6 µM and 19.9 µM	
c1ccc(CCn2cncn2)cc1	> 100 µM	> 100		> 100	> 100 µM						> 100		> 100
c1ccc(C2[C@@H]3CCCc4ccccc4C3=NN2c2ccccc2)cc1 (some centres undefined)	> 100 µM		> 100 µM	> 100	> 100 µM						> 100		
CC(=O)C1(O)Cc2c(O)c3c(c(O)c2C(OC2CC(N)C(O)C(C)O2)C1)C(=O)c1ccccc1C3=O (centres undefined)		< 0.0108	0.181 µM	0.592	0.121 µM			0.0869			0.498		
O=C1C[C@H](c2ccc(O)c(O)c2)Oc2cc(O)cc(O)c21	> 100 µM	> 100		> 100	> 100 µM			> 100			> 100		> 100
CC(C)N(C(C)C)P(OCCC#N)OC1CC(n2cnc3c(=O)[nH]cnc32)OC1COC(=O)NCCCCCCNC(=O)OC(C)(C)c1ccc(-c2ccccc2)cc1 (centres undefined)	41.6 µM	32.1		> 100	42.2 µM			> 100			> 100		
COC[C@@H](Cc1ccc(OC)c(OC)c1)[C@@H](COC)Cc1ccc(OC)c(OC)c1	> 100 µM	> 100	> 100 µM	> 100	> 100 µM			> 100			> 100		
